The text below walks through data of US11718618B2, “Substituted pyrido[2,1-a]isoquinolines as VMAT2 inhibitors” (priority 2021, dated 2023).

Data set [1] in a line: Stability of compounds in human liver microsomes. It counts as in vitro ADME. To be noted: for CLint scaled at 0.5 μM / half-life at 0.5 μM: both sexes, pH 7.4; for CLint scaled at 0.5 μM: liver microsomes, calculated from HLM half-life, read-out: HLM Scaled Intrinsic Clearance; for CLint scaled at 0.5 μM / Predicted Max. Bioavailability (% F) / HLM Predicted Systemic Clearance: human; for half-life at 0.5 μM: 0.5 μM compound, 0.5 mg/mL human liver microsomes, 37° C., maxed at 420 minutes, read-out: HLM Elimination half-life (t1/2, min); for Predicted Max. Bioavailability (% F): predicted from HLM data; for HLM Predicted Systemic Clearance: scaled from HLM half-life (Obach method). On the procedure: A test compound (0.5 μM) was incubated with pooled mixed gender liver microsomes from humans (0.5 mg/mL total protein) at 37° C. in the presence of an NADPH-generating system containing 50 mM, pH 7.4 potassium phosphate buffer, 3 mM magnesium chloride, 1 mM EDTA, 1 mM NADP, 5 mM glusose-6-phosphate, and 1 Unit/mL glucose-6-phosphate dehydrogenase. All concentrations were relative to the final incubation volume of 125 μL. Incubations were conducted at 37° C. for 0, 5, 10, 20, 40, and 60 minutes in a water bath and terminated by rapid mixing with 150 μL of ice-cold acetonitrile containing internal standard. Precipitated proteins were removed by centrifugation prior to LC-MS/MS analysis. Aliquots of the resulting supernatant fractions were analyzed by LC-MS/MS monitoring for depletion of parent compound. The resultant peak area ratio versus time data was fitted to a non-linear regression using XLfit Scientific Curve Fitting Software (IDBS Ltd., Surrey, UK) and the elimination half-life (t1/2, min) was calculated from the slope. […] Additional values calculated included predicted extraction ratio and predicted maximum bioavailability.

Data set [2] concerns the target human VMAT2 (Homo sapiens (Human), UniProt Q05940). The experiment in a line: VMAT2 radioligand binding, 3H-dihydrotetrabenazine competition on human platelet homogenate. To be noted: 10 nM 3H-dihydrotetrabenazine, human platelet homogenate, 25° C., 90 minutes; read-out: VMAT2 Ki. On the procedure: Examples of techniques for determining the capability of a compound to inhibit VMAT2 are provided below. The procedure was adapted from that described previously (see, e.g., Near, (1986), Mol. Pharmacol. 30: 252-57; Teng, et al., J. Neurochem. 71, 258-65, 1998). Homogenates from human platelets were prepared by homogenization and then washed by centrifugation as described previously (see, e.g., Hoare et al., (2003) Peptides 24:1881-97).
The human VMAT2 Ki values for the compounds listed in Table 15A and Table 15B were determined using the following procedures. Compound dilution series in DMSO were generated from either powder stocks by hand, or from DMSO stocks using serial dilution on a Vantage (Hamilton), or direct dilution using an Echo 655 (Beckman). In a total volume of 0.145 to 0.150 mL in low-binding 96-well plates (Corning #3605), twelve concentrations of test compound were competed against 10 nM ^3H-dihydrotetrabenezine (American Radiolabeled Chemicals) on human platelet homogenate (30 μg membrane protein per well) in VMAT2 binding buffer (Dulbecco's phosphate buffered saline, 1 mM EDTA, pH 7.4). Following incubation at 25° C. for 90 minutes, bound radioligand was collected by rapid filtration onto either GF/B or GF/C glass fiber filters, pretreated with 0.100 polyethylenimine, using either a Unifilter-96 Harvester (PerkinElmer) or Microlab Star (Hamilton). Following harvesting the filter plates were washed with 0.8 mL VMAT2 binding buffer, and bound radioligand was quantified by scintillation counting using a Topcount NXT or Microplate Counter Microbeta (PerkinElmer).

As usually defined, the Ki is the equilibrium dissociation constant of an inhibitor or competing ligand from its target.

Chain of human VMAT2 (Q05940 whole entry): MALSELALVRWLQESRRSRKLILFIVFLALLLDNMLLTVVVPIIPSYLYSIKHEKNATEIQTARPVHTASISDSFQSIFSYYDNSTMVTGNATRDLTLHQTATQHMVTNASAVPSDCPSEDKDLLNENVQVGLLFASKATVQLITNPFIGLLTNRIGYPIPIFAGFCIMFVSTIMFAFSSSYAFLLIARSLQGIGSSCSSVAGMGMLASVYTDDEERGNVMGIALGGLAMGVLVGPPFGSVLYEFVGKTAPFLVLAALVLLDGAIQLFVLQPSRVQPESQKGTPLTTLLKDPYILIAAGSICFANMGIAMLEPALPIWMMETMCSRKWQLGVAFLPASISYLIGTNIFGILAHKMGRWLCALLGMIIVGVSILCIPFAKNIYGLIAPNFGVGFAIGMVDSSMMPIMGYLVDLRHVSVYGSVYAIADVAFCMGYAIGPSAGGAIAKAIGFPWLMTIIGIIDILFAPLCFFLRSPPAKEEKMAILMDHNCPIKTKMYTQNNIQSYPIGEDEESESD

Turning to `COc1cc2c(cc1OCc1cccc(F)c1)CCN1C[C@@H](CC(C)(C)C)[C@H](O)C[C@H]21` [Compound 4-64, (2R,3R,11bR)-3-(2,2-dimethylpropyl)-9-[(3-fluorophenyl)methoxy]-10-methoxy-1H,2H,3H,4H,6H,7H,11bH-pyrido[2,1-a]isoquinolin-2-ol], in data set [1], the CLint scaled at 0.5 μM was 2.28 L/h/kg, the half-life at 0.5 μM worked out at 33 min, the “Predicted Max. Bioavailability (% F)” value is 35 % F and the “HLM Predicted Systemic Clearance” value is 0.786 L/h/kg. Moreover, the Ki in data set [2] worked out at 0.0055 µM.
For `COc1cc2c(cc1OCC(C)(F)F)CCN1C[C@@H](CC(C)(C)C)[C@@H](O)C[C@H]21` [Compound 4-11, (2S,3R,11bR)-9-(2,2-difluoropropoxy)-3-(2,2-dimethylpropyl)-10-methoxy-1H,2H,3H,4H,6H,7H,11bH-pyrido[2,1-a]isoquinolin-2-ol], in data set [1], the CLint scaled at 0.5 μM was no more than 0.178 L/h/kg, the half-life at 0.5 μM is no less than 420 min, the “Predicted Max. Bioavailability (% F)” value is on record as no less than 87 % F and the “HLM Predicted Systemic Clearance” value was no more than 0.155 L/h/kg. The Ki in data set [2] was determined as 0.014 µM.
In the same order, the values of `COc1cc2c(cc1OCC1(F)CCC1)CCN1C[C@@H](CC(C)(C)C)[C@H](O)C[C@H]21` [Compound 4-61, (2R,3R,11bR)-3-(2,2-dimethylpropyl)-9-[(1-fluorocyclobutyl)methoxy]-10-methoxy-1H,2H,3H,4H,6H,7H,11bH-pyrido[2,1-a]isoquinolin-2-ol] are 2.52 L/h/kg, 30 min, 32 % F, 0.813 L/h/kg and 0.0035 µM.
Taken in the same sequence, the figures for `COc1cc2c(cc1OCC1CC1)CCN1C[C@@H](CC(C)(C)C)[C@H](O)C[C@H]21` [Compound 4-88, (2R,3R,11bR)-9-(cyclopropylmethoxy)-3-(2,2-dimethylpropyl)-10-methoxy-1H,2H,3H,4H,6H,7H,11bH-pyrido[2,1-a]isoquinolin-2-ol] were 1.68 L/h/kg, 44 min, 42 % F, 0.7008 L/h/kg and 0.00068 µM.
Taken in the same sequence, the figures for `COc1cc2c(cc1OCC1(F)CC1)CCN1C[C@@H](CC(C)(C)C)[C@@H](O)C[C@H]21` [Compound 4-118, (2S,3R,11bR)-3-(2,2-dimethylpropyl)-9-[(1-fluorocyclopropyl)methoxy]-10-methoxy-1H,2H,3H,4H,6H,7H,11bH-pyrido[2,1-a]isoquinolin-2-ol] were 0.396 L/h/kg, 189 min, 75 % F, 0.298 L/h/kg and 0.013 µM.
As to `COc1cc2c(cc1OCC1(O)CCC1)CCN1C[C@@H](CC(C)(C)C)[C@H](O)C[C@H]21` [Compound 4-25, (2R,3R,11bR)-3-(2,2-dimethylpropyl)-9-[(1-hydroxycyclobutyl)methoxy]-10-methoxy-1H,2H,3H,4H,6H,7H,11bH-pyrido[2,1-a]isoquinolin-2-ol], in data set [1], the CLint scaled at 0.5 μM was 0.685 L/h/kg, the half-life at 0.5 μM was found to be 109 min, the “Predicted Max. Bioavailability (% F)” value was 64 % F and the “HLM Predicted Systemic Clearance” value was 0.436 L/h/kg. Besides, the Ki in data set [2] is 0.0055 µM.
Take `COc1cc2c(cc1OCCn1ccnc1)CCN1C[C@@H](CC(C)(C)C)[C@H](O)C[C@H]21` [Compound 4-34, (2R,3R,11bR)-3-(2,2-dimethylpropyl)-9-[2-(1H-imidazol-1-yl)ethoxy]-10-methoxy-1H,2H,3H,4H,6H,7H,11bH-pyrido[2,1-a]isoquinolin-2-ol]: the Ki in data set [2] is greater than 10 µM.
Same read-out and setting: in the case of `COc1cc2c(cc1OCC(C)(F)F)CCN1C[C@H](CC(C)(C)C)[C@H](O)C[C@@H]21` [Compound 4-3, (2R,3S,11bS)-9-(2,2-difluoropropoxy)-3-(2,2-dimethylpropyl)-10-methoxy-1H,2H,3H,4H,6H,7H,11bH-pyrido[2,1-a]isoquinolin-2-ol] it was 0.152 µM.
The same measure, in the same setting: the same measure for `COc1cc2c(cc1OCC(=O)N(C)CC(F)(F)F)CCN1C[C@@H](CC(C)(C)C)[C@H](O)C[C@H]21` [Compound 4-84, 2-{[(2R,3R,11bR)-3-(2,2-dimethylpropyl)-2-hydroxy-10-methoxy-1H,2H,3H,4H,6H,7H,11bH-pyrido[2,1-a]isoquinolin-9-yl]oxy}-N-methyl-N-(2,2,2-trifluoroethyl)acetamide]: 0.272 µM; for `COc1cc2c(cc1OCC(F)F)CCN1C[C@H](CC(C)(C)C)[C@@H](O)C[C@@H]21` [Compound 4-6, (2S,3S,11bS)-9-(2,2-difluoroethoxy)-3-(2,2-dimethylpropyl)-10-methoxy-1H,2H,3H,4H,6H,7H,11bH-pyrido[2,1-a]isoquinolin-2-ol]: 0.86 µM.
Still for that read-out and setting: the same measure for `COc1cc2c(cc1OCC1(S(C)(=O)=O)CC1)CCN1C[C@@H](CC(C)(C)C)[C@H](O)C[C@H]21` [Compound 4-96, (2R,3R,11bR)-3-(2,2-dimethylpropyl)-9-[(1-methanesulfonylcyclo-propyl)methoxy]-10-methoxy-1H,2H,3H,4H,6H,7H,11bH-pyrido[2,1-a]isoquinolin-2-ol]: greater than 10 µM; for `COc1cc2c(cc1OCCCS(C)(=O)=O)CCN1C[C@@H](CC(C)(C)C)[C@H](O)C[C@H]21` [Compound 4-85, (2R,3R,11bR)-3-(2,2-dimethylpropyl)-9-(3-methanesulfonylpropoxy)-10-methoxy-1H,2H,3H,4H,6H,7H,11bH-pyrido[2,1-a]isoquinolin-2-ol]: 0.276 µM; for `COc1cc2c(cc1OCC1(OS(C)(=O)=O)CC1)CCN1C[C@@H](CC(C)(C)C)[C@H](O)C[C@H]21` [Compound 4-94, 1-({[(2R,3R,11bR)-3-(2,2-dimethylpropyl)-2-hydroxy-10-methoxy-1H,2H,3H,4H,6H,7H,11bH-pyrido[2,1-a]isoquinolin-9-yl]oxy}methyl)cyclopropyl methanesulfonate]: 0.387 µM.
With `COc1cc2c(cc1OCc1ccc(C#N)cn1)CCN1C[C@@H](CC(C)(C)C)[C@H](O)C[C@H]21` [Compound 4-82, 6-({[(2R,3R,11bR)-3-(2,2-dimethylpropyl)-2-hydroxy-10-methoxy-1H,2H,3H,4H,6H,7H,11bH-pyrido[2,1-a]isoquinolin-9-yl]oxy}methyl)pyridine-3-carbonitrile], the Ki in data set [2] is 0.198 µM.
On the same count and under the same terms, in the case of `COc1cc2c(cc1OC)[C@@H]1C[C@H](O)[C@@H](CC(C)(C)C)CN1CC2` [Compound 5-3, (2S,3S,11bS)-3-(2,2-dimethylpropyl)-9,10-dimethoxy-1H,2H,3H,4H,6H,7H,11bH-pyrido[2,1-a]isoquinolin-2-ol] it was 0.7 µM; in that of `CCC(O)(CC)COc1cc2c(cc1OC)[C@H]1C[C@@H](O)[C@H](CC(C)(C)C)CN1CC2` [Compound 4-93, (2R,3R,11bR)-3-(2,2-dimethylpropyl)-9-(2-ethyl-2-hydroxybutoxy)-10-methoxy-1H,2H,3H,4H,6H,7H,11bH-pyrido[2,1-a]isoquinolin-2-ol], 0.281 µM.
On the same count and under the same terms, in the case of `COc1cc2c(cc1OCC1CN(C)C1)CCN1C[C@@H](CC(C)(C)C)[C@H](O)C[C@H]21` [Compound 4-37, (2R,3R,11bR)-3-(2,2-dimethylpropyl)-10-methoxy-9-[(1-methylazetidin-3-yl)methoxy]-1H,2H,3H,4H,6H,7H,11bH-pyrido[2,1-a]isoquinolin-2-ol] it was greater than 10 µM.
